Positions of bridges follow the written chain, without caps; N, C: chain ends. No end group written: not given here.
Assays:
Type in all cases: in vivo, mouse
Sgcd −/− mice [1] = experiment: H&E and Masson's Trichrome stain of quadriceps muscle for fibrosis, Example 4; settings: osmotic minipump 8 weeks, TXA127 500, Pancyte 50, TXA301 50 μg/kg/day, vs saline, FIG. 10
Experimental: (§1) A total of 32 Sgcd −/− mice were randomly assigned to one of four treatment groups (n=8 in each): a saline group (vehicle) a TXA127 group, a Pancyte group, and a TXA301 group. The doses of Angiotensin (1-7) peptides administered was 500 μg/kg/day for TXA127, 50 μg/kg/day for Pancyte, and 50 μg/kg/day for TXA301. Osmotic minipumps containing the treatments were implanted in mice at 28-35 weeks of age, and the angiotensin (1-7) peptides were infused for 8 weeks. For the last three weeks of treatment, the mice were put in cages with running wheels attached to calculate the amount of voluntary exercise performed by each animal. Total number of wheel revolutions (distance ran) were collected daily. At the end of 8 weeks of treatment, quadriceps muscles were harvested from the mice for histopathological and oxidative stress analyses.
An H&E stain was used to examine the dystrophic morphology of the quadriceps muscles of the mice.

Sgcd −/− mice [2] = experiment: Voluntary running-wheel exercise in Sgcd −/− mice, Example 4; settings: for amount of voluntary exercise performed (average running-wheel revolutions, weeks 6, 7 and 8) / amount of exercise performed (accumulated totals over the three week test period): osmotic minipump 8 weeks, vs saline; for amount of voluntary exercise performed (average running-wheel revolutions, weeks 6, 7 and 8): TXA127 500, Pancyte 50, TXA301 50 μg/kg/day, FIG. 8; for amount of exercise performed (accumulated totals over the three week test period): TXA127 500, TXA301 50 μg/kg/day, FIG. 9
Source text: In this Example, Sarcoglycan delta deficient mice (Sgcd−/−), an established mouse model of Limb Girdle Muscular Dystrophy-2F (LGMD-2F), was used to examine the effects of angiotensin (1-7) peptides on the progression of functional impairment and fibrosis in sufferers of the disease.
as §1

Sgcd −/− mice [3] = experiment: Radio-telemetry of blood pressure, heart rate and locomotor activity in Sgcd −/− mice
Source text: In this Example, Sgcd −/− mice, a known model of limb-girdle muscular dystrophy, were used to assess the effects of angiotensin (1-7) peptides on skeletal muscle fibrosis, blood pressure, heart rate, cardiac activity, baroreflex sensitivity, oxidative stress, AT1R receptor expression, and resting cardiac and vagal sympathetic tone. Sgcd −/− mice are missing a key component of the sarcoglycan complex, specifically, they are missing a link between the F-actin cytoskeleton and the extracellular matrix. This defect causes muscle wasting and weakness due to a reduction in muscle fiber integrity and dysregulation in cell signaling in muscle cells. It has been previously shown that this defect results in a reduction of locomotor activity and autonomic dysfunction at a young age. The autonomic dysfunction is thought to lead to cardiac dysfunction later in life.
(§2) To examine the effects of angiotensin (1-7) peptides on disruption of normal motor activity in Sgcd −/− mice, conscious, young (10-15 wks) Sgcd−/− and control C57BL6 mice were analyzed by radio-telemetry. Radio-telemeters were implanted into the aorta via the left carotid artery under ketamine-xylazine anesthesia when mice were 10 weeks of age. Following recovery, blood pressure, heart rate and locomotor activity were measured 24 hours/day. Blood pressure measurements were sampled at 2000 Hz for 1 hour periods to enable beat-to-beat measurements of systolic arterial pressure and pulse interval (PI). Baroreflex control of heart rate was assessed from spontaneous fluctuations in systolic blood pressure and pulse interval using known sequence techniques.
Osmotic minipumps (Alzet) were implanted with either Ang (1-7) (also referred to as “TXA127”) or vehicle in mice pups at 3 weeks of age, under ketamine-xylazine anesthesia.
(§3) Data were collected over 2-3 days, and 24 hour averages were calculated. Separate groups of control and Sgcd−/− mice were infused with Ang-(1-7) (300 ng/kg/min) for 8 weeks beginning at 3 weeks of age. Measurements were obtained in these mice using the same protocols as described above.
(§4) Data in this example are presented as ±SE. Results were analyzed by ANOVA, and paired and unpaired t-tests as appropriate, significance was determined at p<0.05.

Sgcd −/− mice [4] = experiment: Baroreflex sensitivity and cardiac/vasomotor autonomic tone in Sgcd −/− mice; settings: Ang-(1-7) 300 ng/kg/min for 8 weeks
Experimental: as §2
Baroreflex sensitivity was calculated from spontaneous fluctuations in systolic blood pressure and pulse interval using the sequence technique. Specifically, baroreflex sensitivity was calculated as the average slope of sequences of 4 or more consecutive blood pressure pulses where the change in blood pressure and pulse interval are positively correlated (r^2>0.85).
Cardiac sympathetic tone and parasympathetic tone were calculated from heart rate responses to the β-adrenergic receptor blocker propranolol and the muscarinic cholinergic receptor blocker methylatropine, respectively. Specifically, resting cardiac sympathetic and parasympathetic (vagal) tone was estimated from heart rate responses to propranolol (1 μg/g, IP) and methylatropine (1 μg/g, IP), respectively. Vasomotor sympathetic tone was calculated from the decrease in mean arterial blood pressure in response to injection of the ganglionic blocker chlorisondamine (12 μg/g, IP).
as §3, §4

Sgcd −/− mice [5] = experiment: Masson Trichrome stain of skeletal muscle (quadriceps) for fibrosis, Example 2
Experimental: as §3
(§5) To assess skeletal muscle phenotypes, paraffin sections of skeletal muscle (quadriceps) were stained with Masson Trichrome to assess histopathology and fibrosis. Frozen sections of skeletal muscle were incubated with polyclonal anti-δ and anti-β sarcoglycan primary antibody, a nuclear stain, and Alexa Fluor 488. AT1R (Ang type 1 receptor) and Mas (Ang(1-7) receptor) were detected with rabbit anti-AT1R, and anti-Mas nuclear stains, and secondary antibody goat anti-rabbit IgG. Oxidative stress (O2.^−) was measured by dihydrocthidium (DHE) fluorescence.
as §4

[6] = system: angiotensin type 1 receptors (AT1R); experiment: AT1R expression in skeletal muscle sections (Alexa Fluor 488 staining); settings: Sgcd −/− mice, Ang-(1-7) 300 ng/kg/min for 8 weeks; vs untreated Sgcd −/−; FIG. 6
Experimental: as §3, §5

Sgcd −/− mice [7] = experiment: Oxidative stress (superoxide) by dihydroethidium (DHE) fluorescence in skeletal muscle, Example 2; settings: Ang-(1-7) 300 ng/kg/min for 8 weeks, vs untreated Sgcd −/−, FIG. 7
Experimental: as §3, §5, §4

Sgcd −/− mice [8] = experiment: Oxidative stress by DHE stain of quadriceps muscle, Example 4; settings: TXA127 500 μg/kg/day for 8 weeks, vs saline, FIG. 11
Experimental: as §1
Dihydroethidium (DHE) was used to examine the degree of oxidative stress in treated Sgcd−/− mice. […] For quantification of degree of fibrosis, an average of six-sections of skeletal quadriceps muscle were obtained from each mouse. An intensity of fluorescence for each mouse was quantified using NIH ImageJ software and normalized to a percentage of the average fluorescence intensity measured in saline-treated Sgcd−/− mice.

For “Asp^1-Arg^2-Val^3-Ser^4-Ile^5-His^6-Cys^7 [PanCyte] (DRVSIHC; bridge 4-7; also: cross link type between Ser4 and Cys7 not given here) [cyclic angiotensin (1-7) peptide analog]”, the “fibrosis in skeletal muscle (quadriceps)” value (Sgcd −/− mice [1]) was “no reduction in fibrosis was observed”.
“Asp^1-Arg^2-Val^3-Ser^4-Ile^5-His^6-Cys^7 [TXA301] (DRVSIHC; bridge 4-7; also: cross link type between Ser4 and Cys7 not given here) [linear angiotensin (1-7) peptide]” was tested, and the “amount of voluntary exercise performed (average running-wheel revolutions, weeks 6, 7 and 8)” value (Sgcd −/− mice [2]) was “significant improvement”, the “amount of exercise performed (accumulated totals over the three week test period)” value (Sgcd −/− mice [2]) was “significant increases” and the “fibrosis in skeletal muscle (quadriceps)” value (Sgcd −/− mice [1]) was “some improvement”.
In the case of “Asp^1-Arg^2-Val^3-Tyr^4-Ile^5-His^6-Pro^7 [Ang (1-7)]”, the “mean arterial blood pressure” value (Sgcd −/− mice [3]; Sgcd −/− mice, Ang-(1-7) 300 ng/kg/min by osmotic minipump for 8 weeks from 3 weeks of age, vs untreated Sgcd −/−, FIG. 2A) was “not significantly affected”, the “24 hour average heart rate” value (Sgcd −/− mice [3]; Sgcd −/− mice, Ang-(1-7) 300 ng/kg/min for 8 weeks, vs untreated Sgcd −/− controls, FIG. 2B) was “mildly decrease” and the “24 hour average locomotor activity” value (Sgcd −/− mice [3]; Sgcd −/− mice, Ang-(1-7) 300 ng/kg/min for 8 weeks, vs untreated Sgcd −/−, FIG. 3) was “reduction in locomotor activity was drastically reduced”. For the same substance, the “levels of locomotion compared with Control C57BL6 mice” value (Sgcd −/− mice [3]; treated Sgcd −/− mice vs Control C57BL6 mice, FIG. 3) was “did not vary significantly”, the “baroreflex sensitivity (decrease in Sgcd −/− mice)” value (Sgcd −/− mice [4]; FIG. 4A) was “essentially abrogated” and the “vasomotor sympathetic tone (increase in Sgcd −/− mice)” value (Sgcd −/− mice [4]; blood pressure response to chlorisondamine, FIG. 4D) was “essentially abrogated”. The “cardiac vagal tone (decrease in Sgcd −/− mice)” value (Sgcd −/− mice [4]; heart rate response to methylatropine, FIG. 4B) was “essentially abrogated”, the “cardiac sympathetic tone (increase in Sgcd −/− mice)” value (Sgcd −/− mice [4]; heart rate response to propranolol, FIG. 4C) was “essentially abrogated” and the “fibrosis of skeletal muscle (quadriceps)” value (Sgcd −/− mice [5]; Sgcd −/− mice, Ang-(1-7) 300 ng/kg/min for 8 weeks, vs untreated Sgcd −/−, FIG. 5) was “markedly reduced”. For the same substance, the “levels of fibrosis compared with control C57BL6 mice” value (Sgcd −/− mice [5]; treated Sgcd −/− mice vs control C57BL6 mice, FIG. 5B) was “comparable to control C57BL6 mice”, the AT1R receptor expression [6] was “essentially abrogates the increase in AT1R” and the “levels of superoxide (DHE fluorescence)” value (Sgcd −/− mice [7]) was “strongly attenuated”. The “fold improvement in exercise compared to saline control animals” value (Sgcd −/− mice [2]; TXA127 500 μg/kg/day, accumulated totals weeks 6-8, FIG. 9) was “more than six fold improvement”, the “amount of voluntary exercise performed (average running-wheel revolutions, weeks 6, 7 and 8)” value (Sgcd −/− mice [2]) was “significant improvement” and the “amount of exercise performed (accumulated totals over the three week test period)” value (Sgcd −/− mice [2]) was “significant increases”. The “fibrosis in skeletal muscle (quadriceps)” value (Sgcd −/− mice [1]) was “significantly reduced fibrosis” and the “oxidative stress (DHE fluorescence intensity)” value (Sgcd −/− mice [8]) was “significantly attenuated”.

From US20180221433A1, “ANGIOTENSINS IN MUSCULAR DYSTROPHY” (University of Iowa Research Foundation, priority 2013, published 2018)
